Source: patent publication US8143227B2, “Azithromycin for treatment of skin disorders” (priority 2008, dated 2012)

Legend:
[1] = Azithromycin levels in plasma; conditions: for average azithromycin plasma level at steady state: steady state conditions; for AUC / AUC(0-t) / Cmax: human, plasma, po
Experimental: Plasma levels of azithromycin were determined as follows. Thirty-nine patients were randomized into one of three treatment groups. Each patient received 40 mg (n=13), 80 mg (n=11), or 120 mg (n=15) of oral azithromycin daily. After the initial dose on day 0, a second dose was not administered until 72 hours later, so as to permit measurement of plasma levels based on a single dose and determination of pharmacokinetic parameters. Blood samples from each patient were taken at times equal to 0 (before dosing), 1, 2, 3, 4, 6, 8, 24, 48, and 72 hours after the initial oral dose. Following 72 hours, each patient received azithromycin daily for the remainder of six weeks (42 days). Blood samples were also taken at times equal to 0 hours (before dosing) and 3 hours after dosing on day 21, and at times equal to 0, 1, 2, 3, 4, 6, 8, and 24 hours following the last dose given on day 42. Plasma samples obtained from the blood samples were stored at −20° C. or lower after collection until processing and analysis.
The amount of azithromycin in plasma was quantified using a validated high pressure liquid chromatographic assay with mass spectroscopy detection. Standards and samples were treated, by pipet addition, with 10.0 microliter of 1:1 acetonitrile/water. The standards and samples were then treated, by pipet addition, with 10.0 microliter of an Azaerythromycin A internal standard solution, followed by the addition of 2.0 mL of the mobile phase, which contained a 250:150:100:0.5:0.1 mixture of ethyl acetate, methanol, acetonitrile, formic acid and morpholine. After tightening Teflon caps onto the extraction jars containing the treated standards and samples, the jars were rotated for 2 hours at 1 rps. Next, 0.20 mL aliquots were removed from each jar and transferred to HPLC autosampler vials, and the vials capped and placed in the autosampler tray for LC-MS-MS analysis. A 5 microliter aliquot was injected from each vial into a suitable high pressure liquid chromatograph (HPLC) with suitable mass spectrophotometry-mass spectrometery detection, such as a Sciex API 3000 LC-MS-MS (GenTech Scientific, Inc., Arcade, N.Y.) with heated nebulizer source. The column used was PVA-Sil, 5 micron, 4.0×50 mm cartridge (Waters Corporation, Milford, Mass.). The flow rate was 1 ml/minute. To determine the amount of azithromycin, the peak area of the m/z 750→592 azithromycin product ion was measured against the peak area of the m/z 736→578 azaerythromycin A internal standard product ion.
Plasma azithromycin concentrations were tabulated for each of the subjects for each dose group 40 mg/day, 80 mg/day, and 120 mg/day, respectively. The pharmacokinetic evaluation was based on individual plasma concentration-time data of azithromycin and was performed using model-independent analysis methods within WinNonlin™ version 5.0.1 (Pharsight Corporation, Mountain View, Calif.). […] Cmax, the maximum plasma concentration, was obtained directly from the concentration-time data. AUClast, the area under the plasma concentration-time curve from time 0 to time t (the time of last quantifiable plasma concentration), was calculated using the linear trapezoidal rule from predose to the last quantifiable plasma concentration. AUC24, the area under the plasma concentration-time curve from time 0 to time t=24 hours, was calculated in a manner similar to the calculation for AUClast except from predose to 24 hours.

inflammatory acne = conditions: 250 mg three times per week, cited from earlier work
[2] = Additional low dosage regimens, adverse effects; type: in vivo, human
Experimental: The numbers of facial inflammatory lesions: papules, pustules, and nodules, and non-inflammatory lesions: open and closed comedones, were counted at the beginning of treatment and again after 3 weeks of treatment and after 6 weeks of treatment. Additionally, nodules were counted independently at each of these visits. Additionally, during the treatment study, each subject reported the occurrence of any adverse effects. The results of this study for the 25 mg/day regimen are shown in Table 7 and for the 80 mg every other day regiment in Table 8. In these tables, the numbers represent the mean number of lesions in the four subjects of each group. The % decrease from Day 0 was calculated as the mean of the differences for each of the parameters (inflammatory lesions, non-inflammatory lesion and nodules) for each individual subject on Day 21 and Day 42.

CC[C@H]1OC(=O)[C@H](C)[C@@H](O[C@H]2C[C@@](C)(OC)[C@@H](O)[C@H](C)O2)[C@H](C)[C@@H](O[C@@H]2O[C@H](C)C[C@H](N(C)C)[C@H]2O)[C@](C)(O)C[C@@H](C)CN(C)[C@H](C)[C@@H](O)[C@]1(C)O [Azithromycin, 9-deoxo-9a-aza-9a-methyl-9a-homoerythromycin A]
average maximum azithromycin plasma level ([1]; 40 mg/day group, after administration on day 42): about 16 ng/ml | average maximum azithromycin plasma level ([1]; 40 mg/day group, after initial dose): about 15 ng/ml | average azithromycin plasma level at steady state ([1]; 40 mg/day group): about 4 ng/ml | average maximum azithromycin plasma level ([1]; 80 mg/day group, after administration on day 42): ~54 ng/mL | average maximum azithromycin plasma level ([1]; 80 mg/day group, after initial dose): ~59 ng/mL | average azithromycin plasma level at steady state ([1]; 80 mg/day group): ~10 ng/mL | average maximum azithromycin plasma level ([1]; 120 mg/day group, after administration on day 42): ~68 ng/mL | average maximum azithromycin plasma level ([1]; 120 mg/day group, after initial dose): ~45 ng/mL | average azithromycin plasma level at steady state ([1]; 120 mg/day group): ~22 ng/mL | maximum plasma concentration compared with MIC ([1]; day 0 and day 42, all dosages tested): less than the MIC of azithromycin for P. acnes | AUC ([1]; 40 mg): 44.7 ng·h/mL | AUC(0-t) ([1]; 40 mg): 73.4 ng·h/mL | Cmax ([1]; 40 mg): 7.08 ng/mL | AUC ([1]; 40 mg/day): 132 ng·h/mL | Cmax ([1]; 40 mg/day): 13.8 ng/mL | AUC ([1]; 80 mg): 294 ng·h/mL | AUC(0-t) ([1]; 80 mg): 456 ng·h/mL | Cmax ([1]; 80 mg): 60.3 ng/mL | AUC ([1]; 80 mg/day): 528 ng·h/mL | Cmax ([1]; 80 mg/day): 53.9 ng/mL | AUC ([1]; 120 mg): 293 ng·h/mL | AUC(0-t) ([1]; 120 mg): 433 ng·h/mL | Cmax ([1]; 120 mg): 57.9 ng/mL | AUC ([1]; 120 mg/day): 752 ng·h/mL | Cmax ([1]; 120 mg/day): 92.9 ng/mL | time of peak average plasma level ([1]; post administration of initial dose, each treatment group): 3 h | cases of gastrointestinal discomfort (inflammatory acne; 21 subjects): 3 cases | cases of vaginitis (inflammatory acne; 21 subjects): one | subjects who experienced side effects (inflammatory acne; 21 subjects): 19% | efficacy in treating lesions of inflammatory acne (inflammatory acne; Fernandez-Obregon 2000): as effective as other antibiotics tested | adverse effects reported ([2]; 25 mg per day for 6 weeks, migraine headache on day 21, deemed not related): only one adverse effect was reported | typical antibiotic side effects (abdominal cramping, nausea, vomiting, diarrhea or vaginitis) ([2]; 25 mg per day or 80 mg every other day for 6 weeks): no typical antibiotic side effects reported | adverse effects reported ([2]; 80 mg every other day for 6 weeks): no adverse effects were reported
